Measured values from patent publication US11266743B2, “Peptide compositions and methods of use thereof” (priority 2017, dated 2022).
“Also recorded” adds a separate entry of the source.

Tests used:
Type in all cases: cell-based
P. aeruginosa biofilms = experiment: Activity against P. aeruginosa biofilms; conditions: 25 μM
Description: Bacterial biofilm formation on implanted medical devices is a serious medical problem because these biofilms can lead to life-threatening systemic infections. We tested selected peptides and rationally designed variants against biofilms formed by P. aeruginosa. […] D-NOGCON reduces viable bacteria by 3.6 logs ( 1/3000 reduction) at 25 μM, while the best conventional antibiotic, Ciprofloxacin, reduced viable bacteria by only 1.7 logs ( 1/55 reduction) at 25 μM.

Hela pTRE-LucIVS2 cells = experiment: ALAMARBLUE toxicity assay of CPP-PNA705; conditions: 10 μM CPP-PNA705 conjugate, after 24 hours
Description: CPP-PNA705 cytotoxicity was assessed using several methods known in the art. A Lactate Dehydrogenase (LDH) assay (FIG. 5A) measured the acute cytotoxicity and detects LDH released by cells because of membrane damage resulting from exposure to the CPPs. An ALAMARBLUE® assay (FIG. 5B) and a Bicinchoninic Acid (BCA) Assay (FIG. 5C) both measure the impact of exposure after 24 hours. In the ALAMARBLUE®, assay some reduction in metabolic activity was detected in Hela705 cells treated with 20 μM CPP-PNA705 concentrations for 1 hour.
Hela pTRE-LucIVS2 cells were plated in 96-well plates at 10,000 cells/well. After 24 hours, cells were treated with CPP constructs for 1 Hr in sfDMEM at 37° C., washed in PBS, and allowed to recover for 24 hours in 100 μl complete media. 10 μl ALAMARBLUE® (ThermoFisher) was added to each well and cells were incubated fo4r 2 Hrs at 37° C. Reduction of ALAMARBLUE® was determined by fluorescence at […].

[1] = system: HeLa, RAW264.7, HepG2, and MCF-7 cells; experiment: TAMRA delivery assay (flow cytometry, confocal microscopy); conditions: 0.5 μM CPP-TA + 4.5 μM CPP-C, 30 minutes at 4° C., 22° C., or 37° C.
Description: To determine the effect of the PNA cargo on delivery, we labeled CPPs, lacking the PNA705 cargo, with the fluorophore TAMRA on a C-terminal cysteine residue (CPP-TA) and measured delivery to multiple cell types. TAMRA-labelled CPPs, mixed with unlabeled CPPs at a 1:10 ratio in serum-free DMEM for a final concentration of 5 μM total peptide, was added to HeLa, RAW264.7, HepG2, and MCF-7 cells in 12-well cell culture plates and incubated for 30 minutes at 4° C., 22° C., or 37° C. prior to flow cytometric analysis (FIGS. 9-16). […] Delivery of TAMRA was verified by confocal microscopy for each cell type.
Hela, RAW264.7, HCT116, HepG2, and MCF-7 cells were plated in 12-well plates at 100,000 cells/well. After 24 hours, cells were gently washed in PBS, topped with 500 μl of CPP-TA solution containing 0.5 μM CPP-TA+4.5 uM CPP-C in sfDMEM without phenol red, and incubated for 30 min at either 4° C., 23° C., or 37° C. The incubation solution was aspirated and cells were treated with 100 μl 0.025% Trypsin for 3 minutes at 23° C. 500 μl DMEM containing 2% FBS, 125 nM Sytox Green, and 20 mM HEPES was used to suspend the cells. Cells were transferred to a filter-topped flow cytometry tube and analyzed on a BD™ LSR II flow cytometer. Cells displaying a normal morphology were gated and first analyzed for GFP fluorescence using the 488 nM laser. GFP negative cells were used to generate a histogram of TAMRA fluorescence, measured with the 543 nM laser.
Cells were treated as described above for the TAMRA delivery assay and immediately imaged to avoid artifacts resulting from fixation. The distribution of TAMRA and Sytox Green was analyzed using a confocal scanning Nikon Eclipse Ti2 inverted microscope using a 40× oil-immersion objective. Sytox Green was excited using the 488 nM laser and TAMRA was excited using the 543 nM laser.

[2] = system: Hela pTRE-LucIVS2-705 cells; experiment: PNA705 mediated luciferase splice correction (luminescence, RLU/μg protein)
Description: To assess nuclear cargo delivery and splice correction, PNA705 (SEQ ID NO: 11) was used. Luciferase production was quantified at both the protein (FIG. 6) and mRNA levels (FIG. 7). To quantify functional luciferase levels following splice correction, Hela pLuc705 cells were treated with a 2× serial dilution starting at 5 μM of CPP-PNA705 for 30 minutes in serum free DMEM at 37° C., washed in PBS, and allowed to recover for 24 hours in complete media. To assess the impact of endosomal entrapment and subsequent lysosomal degradation, some cells were co-treated with the endosomal acidification inhibitor chloroquine (120 μM) along with 5 μM CPP-PNA705. Cell lysates were assayed for luciferase by luminescence. To control for total cell density, lysates were also analyzed for total protein by the BCA assay.
Hela pTRE-LucIVS2-705 cells were seeded on flat-bottom 96-well plates at 10,000 cells per well in 200 μl complete DMEM. The following day, cells were washed in phosphate buffered saline and topped with premixed 50 μl 2× serum/phenol red free DMEM (Gibco)+50 μl peptide cleavage solution (ddH2O+peptide). Cells were transfected for 30 min at 37° C. with 5% CO2. The transfection solution was removed, cells were washed with PBS, and topped with 100 μl complete DMEM. The next day (24 hour recovery) cells were washed in PBS and lysed in 20 μl reporter lysis buffer (Promega E4030) following the manufacturers protocol. 10 μl of the lysate was removed and total protein concentration was determined using the bicinchoninic acid assay (Pierce BCA Protein Assay-ThermoFisher 23225). The 96-well plate containing the remaining 10 μl lysate was analyzed for luminescence using the Luciferase Assay System (Promega E1500) on a BioTek SYNERGY™ 2 plate reader with injector ports. Data was expressed as Relative Luminescence Units/μg Protein (RLU/μg Protein) and positive wells were defined as those whose RLU/μg Protein values exceeded the average for the plate by at least three standard deviations. […]

[3] = system: Hela cells stably transfected with mCherry and GFP1-10; experiment: Split GFP assay (GFP-11 delivery); conditions: all concentrations and temperatures studied
Description: To test the ability of CPPs to deliver other cargoes, specifically a protease-sensitive peptide cargo, we modified the well-known split-GFP assay. CPPs were tested for the ability to deliver the polar 16-residue GFP-11 peptide across the membrane barrier. This peptide rescues the fluorescence of the cytosolic endogenous, non-fluorescent GFP1-10 protein. Here, we stably transfected Hela cells with a plasmid containing the full length mCherry and the non-fluorescent GFP1-10. Following incubation with CPP-GFP-11 constructs at multiple concentrations and temperatures for 30 minutes in serum free DMEM, cells were analyzed by flow cytometry for mCherry and GFP fluorescence (FIG. 17). Live cells expressing mCherry (˜50% of the total cells) were gated and their GFP fluorescence was analyzed. Unlike the luciferase splice correction assay where a single corrected mRNA transcript serves as template for many molecules of functional luciferase, the split GFP assay is stoichiometric; a single GFP-11 peptide can bind to a single GFP1-10 protein producing a finite fluorescent response.
Hela cells were transfected with p_mCherry-GFP1-10 (Addgene plasmid #78591) using LIPOFECTAMINE® 3000 (ThermoFisher). Single mCherry positive cells were sorted into 96-well plates using a BD™ FACSARIA™ cell sorter and colonies were maintained under G418 selection at […]. Stably transfected cells were plated in 12-well plates at 100,000 cells/well and grown overnight in complete DMEM. Cells were washed in PBS and incubated in 500 μl of CPP-GFP-11 solution at variable concentrations at 23° C. and 37° C. for 30 minutes. The CPP-GFP-11 solution was aspirated and 100 μl of 0.025% trypsin solution was added to each well. After detachment, cells were suspended in 500 μL of PBS+2% FBS and 20 mM HEPES. Cells were analyzed using a BD™ LSRII flow cytometer. Cells displaying a normal morphology were gated and first analyzed for mCherry fluorescence using the 543 nM laser. mCherry+ cells were used to generate a histogram of GFP fluorescence measured with the 488 nM laser.

Compound | reduction of viable bacteria in biofilm (P. aeruginosa biofilms) [logs] | reduction in metabolic activity (Hela pTRE-LucIVS2 cells) | TAMRA delivery (words, rank order) [1] | efficiency of PNA705 delivery in cell culture (words, rank order) [2] | GFP-11 delivery [3]
O=C(O)c1cn(C2CC2)c2cc(N3CCNCC3)c(F)cc2c1=O [Ciprofloxacin, reference compound] | 1.7 | – | – | – | –
RKKRWFRRRRPKWKK [CPP-1] | – | 20% | CPP-2»CPP-3=CPP-1>CPP-4>TAT=penetratin | most efficient at PNA delivery | deliver GFP-11 to more cells than Tat and penetratin; also recorded: most efficient at GFP-11 delivery
RRKKIWFRRLRMK [CPP-4] | – | little effect | CPP-2»CPP-3=CPP-1>CPP-4>TAT=penetratin; also recorded: does not deliver GFP-11 or TAMRA significantly | successfully delivers PNA705 | does not deliver GFP-11 or TAMRA significantly
RRRRRRRRR [Arg9, reference compound] | – | – | – | much better than Tat | –
